Data taken from patent US9504747B2, “Lipids and lipid compositions for the delivery of active agents” (Novartis AG, priority 2013, dated 2016).

What was measured:
[1] = pKa measurement of the cationic lipid (TNS fluorescence vs pH); type: physicochemical; details: probe TNS (fluorescent probe), pKa of the cationic lipid of formula (I)
Experimental: Unless indicated otherwise, all pKa's referred to herein were measured at standard temperature and pressure. Also, unless otherwise indicated, all references to pKa are references to pKa measured using the following technique. 2 mM solution of lipid in ethanol was prepared by weighing the lipid and then dissolving it in ethanol. 0.3 mM solution of fluorescent probe TNS in ethanol:methanol 9:1 was prepared by first making 3 mM solution of TNS in methanol and then diluting to 0.3 mM with ethanol. An aqueous buffer containing 200 mM sodium phosphate dibasic and 100 mM citric acid was prepared. […] Using the Hamilton Microlab Star high throughput liquid handler and Hamilton run control software Software, 7.5 uL of probe/lipid mix were added to 242.5 uL of buffer in a 1 mL 96 well plate (model NUNC 260252, […] Nunc International). This was done with all twelve buffers. After mixing in 1 mL 96 well plate, 100 uL of each probe/lipid/buffer mixture was transferred to a 250 uL black with clear bottom 96 well plate (model COSTAR 3904, Corning). The fluorescence measurements are carried out on the SpectraMax M5 spectrophotometer using software SoftMax pro 5.2 and following parameters: After the measurement, the background fluorescence value of an empty well on the 96 well plate was subtracted from each probe/lipid/buffer mixture. The fluorescence intensity values were then normalized to the value at lowest pH. The normalized fluorescence intensity vs. pH chart was then plotted in the Microsoft Excel software. The twelve points were connected with a smooth line. The point on the line at which the normalized fluorescence intensity was equal to 0.5 was found. […] The pKa determined using this method is precise to about 0.1 pKa units.

[2] = Polydispersity index (PDI) of the lipid nanoparticle (dynamic light scattering); type: physicochemical
From the text: The lipid nanoparticles (LNPs) were formed by mixing equal volumes of lipids dissolved in alcohol with siRNA dissolved in a citrate buffer by an impinging jet process. […] The siRNA to total lipid ratio is approximately 0.05 (wt/wt). Where a LNP formulation contains four lipid components, the molar ratios correspond to the type of lipid as it appears in the first four columns of the table, in the order that they appear. The ratio of the lipids ranges from 20 to 70 mole percent for the cationic lipid with a target of 40-60, the mole percent of helper lipid ranges from 20 to 70 with a target of 30 to 50, the mole percent of neutral lipid ranges from 0-30, the mole percent of PEG lipid has a range from 1 to 6 with a target of 2 to 5. The concentration of siRNA solution ranges from 0.7 to 1.0 mg/mL with a target of 0.8 to 0.9 mg/mL in a sodium citrate: sodium chloride buffer pH 4-6, with a target of 4.5-5.5. The LNPs are formed by mixing equal volumes of lipid solution in ethanol with siRNA dissolved in a citrate buffer by an impinging jet process through a mixing device with ID ranging from 0.25 to 2.0 mm at a flow rate from 10 to 640 mL/min. The mixed LNP solution is held at room temperature for 0-24 hrs prior to a dilution step. […] The final product is sterile filtered and stored at 4° C. Unless indicated otherwise, all PDIs referred to herein are the PDI of the fully formed nanoparticle, as measured by dynamic light scattering on a Malvern Zetasizer. The nanoparticle sample was diluted in phosphate buffered saline (PBS) so that the count rate was approximately 200-400 kcts. The data is presented in Tables 4 and 5 as a weighted average of the intensity measure.

[3] = tested on: PLK-1 mRNA; test: LS411N Xenograft Assay with PLK1-424 siRNA lipid nanoparticles; type: in vivo, Female Nu/Nu mice; details: percent knock down of PLK-1 mRNA in tumor vs control; 3 mg/kg IV daily for three days, 24 h post last injection; stealth lipid S010
Experimental: Female Nu/Nu mice (6-8 weeks old) were implanted subcutaneously with 5×10^6 LS411N cells. Tumor growth was monitored by caliper measurement before treatment initiation. Mice bearing 150-250 mm^3 subcutaneous tumors were randomized and enrolled in the study. The stock siRNA formulations were diluted to […] with PBS for dosing. Animals enrolled in different groups received a single daily bolus IV injection of 3 mg/kg siRNA for three days. Tumors were harvested 24 hours post last injection to assess target gene regulation by qRT-PCR.
Lipid nanoparticles comprising lipid compounds of formula (I) and the PLK1-424 siRNA duplex sequence listed above were tested in the LS411N Xenograft Assay. The results of this assay are given in Table 5 below as a percent knock down of PLK-1 mRNA as compared to the control when administered as a single daily dose for three days at a dose of 3 mg/kg.

[4] = Particle size of the lipid nanoparticle (dynamic light scattering, Malvern Zetasizer); type: physicochemical; details: Table 4, FVII siRNA LNP, Z-average
From the text: The lipid nanoparticles have a size of about 1 to about 2,500 nm, about 1 to about 1,500 nm, about 1 to about 1,000 nm, in a sub-embodiment about 50 to about 600 nm, in a sub-embodiment about 50 to about 400 nm, in a sub-embodiment about 50 to about 250 nm, and in a sub-embodiment about 50 to about 150 nm. Unless indicated otherwise, all sizes referred to herein are the average sizes (diameters) of the fully formed nanoparticle, as measured by dynamic light scattering on a Malvern Zetasizer. The nanoparticle sample is diluted in phosphate buffered saline (PBS) so that the count rate is approximately 200-400 kcts. The data is presented as a weighted average of the intensity measure. The lipid nanoparticles (LNPs) were formed by mixing equal volumes of lipids dissolved in alcohol with siRNA dissolved in a citrate buffer by an impinging jet process. […] The siRNA to total lipid ratio is approximately 0.05 (wt/wt). Where a LNP formulation contains four lipid components, the molar ratios correspond to the type of lipid as it appears in the first four columns of the table, in the order that they appear. The ratio of the lipids ranges from 20 to 70 mole percent for the cationic lipid with a target of 40-60, the mole percent of helper lipid ranges from 20 to 70 with a target of 30 to 50, the mole percent of neutral lipid ranges from 0-30, the mole percent of PEG lipid has a range from 1 to 6 with a target of 2 to 5. The concentration of siRNA solution ranges from 0.7 to 1.0 mg/mL with a target of 0.8 to 0.9 mg/mL in a sodium citrate: sodium chloride buffer pH 4-6, with a target of 4.5-5.5. The LNPs are formed by mixing equal volumes of lipid solution in ethanol with siRNA dissolved in a citrate buffer by an impinging jet process through a mixing device with ID ranging from 0.25 to 2.0 mm at a flow rate from 10 to 640 mL/min. The mixed LNP solution is held at room temperature for 0-24 hrs prior to a dilution step. […] The final product is sterile filtered and stored at 4° C. Unless indicated otherwise, all particle size measurements referred to in Tables 4 and 5 are the Z-average particle size of the fully formed nanoparticle, as measured by dynamic light scattering on a Malvern Zetasizer. The nanoparticle sample was diluted in phosphate buffered saline (PBS) so that the count rate is approximately 200-400 kcts.

[5] = tested on: respiratory syncytial virus F protein; test: Immunization studies: anti-RSV-F titers after liposome-delivered vA317 self-replicating RNA; type: in vivo; details: BALB/c mice, Course A = days 0 & 21, liposomes with 0.1 μg vA317 replicon (naked control 1 μg)
Experimental: BALB/c were immunized with liposomes comprising DSPC, cholesterol, and various lipids of the invention (or, for comparison, the cationic lipid 1,2-dilinoleyloxy-N,N-dimethyl-3-aminopropane or ‘DLinDMA’). The liposomes encapsulated 0.1 μg of “vA317” self-replicating RNA replicon which encodes respiratory syncytial virus F protein (see WO2012/031043). […] Doses were given either on days 0 & 21 or days 0 & 42. Immune responses were assessed 2 weeks after each dose (2wp1, 2wp2), and in some cases also at 4 weeks after the second dose (4wp2). Four series of experiments were performed, each with its own naked control.

[6] = Table 4, FVII siRNA LNP, Chol/DSPC/stealth lipid PEG-DMG, 45/44/9/2
[7] = Table 4, FVII siRNA LNP, Chol/DSPC/stealth lipid S010, 45/44/9/2
[8] = Chol/DSPC/stealth lipid S010, molar ratio 45/44/9/2
[9] = Chol/DSPC/stealth lipid PEG-DMG, molar ratio 45/44/9/2

| Structure (SMILES) | pKa ([1]; Table 4) | PDI [2, 7] | Size (nm) [4, 8] [nm] | further results |
| --- | --- | --- | --- | --- |
| CCCCCCCC(=O)OCC(CCOc1cc(CN(C)C)cc(OCCC(COC(=O)CCCCCCC)OC(=O)CCCCCCC)c1)OC(=O)CCCCCCC (stereo not drawn) [Example 91] | 6.01 | 0.053 | – | pKa ([1]; Table 5): 6.01; PDI [2, 6]: 0.06; PDI ([2]; Table 5, PLK1-424 siRNA LNP, stealth lipid S010, 45/44/9/2): 0.032; LS411 KD 3 × 3 mg/Kg [3]: 45% |
| CCCCC/C=C\C/C=C\CCCCCCCC(=O)OCCCC(=O)OCc1cc(COC(=O)CCCOC(=O)CCCCCCC/C=C\C/C=C\CCCCC)cc(CN(C)C)c1 [Example 82] | 6.03 | 0.064 | 119.2 | – |
| CCCCCCCCCC(=O)OCCCCCCOc1cc(CN(C)C)cc(OCCCCCCOC(=O)CCCCCCCCC)c1 [Example 47] | 6.07 | 0.035 | 125.9 | PDI [2, 6]: 0.06; Size (nm) [4, 9]: 109.3 nm |
| CCCCCCCCCC(=O)OCCCCCC(=O)OCc1cc(COC(=O)CCCCCOC(=O)CCCCCCCCC)cc(CN(C)C)c1 [Example 88] | 5.99 | 0.046 | 152.4 | – |
| CCCCCCCC(=O)OC[C@@H](CCOc1cc(CN(C)C)cc(OCC[C@@H](COC(=O)CCCCCCC)OC(=O)CCCCCCC)c1)OC(=O)CCCCCCC [Example 92] | 5.92 | 0.065 | 117.3 | – |
| CCCCC/C=C\C/C=C\CCCCCCCC(=O)OCc1cc(COC(=O)CCCCCCC/C=C\C/C=C\CCCCC)cc(CN(C)C)c1 [Example 33] | 5.85 | 0.042 | 79.15 | PDI [2, 6]: 0.06; Size (nm) [4, 9]: 107.8 nm |
| CCCCCCCC(=O)OC[C@@H](CCOc1cc(CN(C)C)cc(OCC[C@H](COC(=O)CCCCCCC)OC(=O)CCCCCCC)c1)OC(=O)CCCCCCC [Example 94] | 6.16 | 0.073 | 116.4 | – |
| CCC/C=C\CCCCCCC(=O)OCCCCCCOc1cc(CN(C)C)cc(OCCCCCCOC(=O)CCCCCC/C=C\CCC)c1 [Example 50] | 5.92 | 0.056 | 126 | – |
| CCCCCC(=O)OCCCCCCCCOc1cc(CN(C)C)cc(OCCCCCCCCOC(=O)CCCCC)c1 [Example 41] | 5.83 | 0.119 | 170.7 | – |
| CC/C=C\C/C=C\C/C=C\CCCCCCCC(=O)OCCCCOc1cc(CN(C)C)cc(OCCCCOC(=O)CCCCCCC/C=C\C/C=C\C/C=C\CC)c1 [Example 62] | 5.9 | 0.066 | 102.5 | – |
| CCCCCCCC(=O)OCCCCCCCC(=O)OCc1cc(COC(=O)CCCCCCCOC(=O)CCCCCCC)cc(CN(C)C)c1 [Example 87] | 6.07 | 0.089 | 159.2 | – |
| CCCCC/C=C\C/C=C\CCCCCCCC(=O)OCc1cc(COC(=O)CCCCCCC/C=C\C/C=C\CCCCC)cc(COC(=O)OCCCN(CC)CC)c1 [Example 69] | 5.3 | 0.053 | 98.13 | anti-RSV-F titer 2wp1 pool 1 ([5]; 2 weeks after first dose): 2853; anti-RSV-F titer 2wp1 pool 2 ([5]; 2 weeks after first dose): 4481; anti-RSV-F titer 2wp2 pool 1 ([5]; 2 weeks after second dose): 23851; anti-RSV-F titer 2wp2 pool 2 ([5]; 2 weeks after second dose): 20793; anti-RSV-F titer 4wp2 pool 1 ([5]; 4 weeks after second dose): 19075; anti-RSV-F titer 4wp2 pool 2 ([5]; 4 weeks after second dose): 21504 |
| CCCCC/C=C\C/C=C\CCCCCCCC(=O)OCCCCOc1cc(CN2CC(O)C2)cc(OCCCCOC(=O)CCCCCCC/C=C\C/C=C\CCCCC)c1 [Example 49] | 5.99 | 0.046 | 111.1 | – |
| CCCCCCCC(=O)OCCCCCCCCCCOc1cc(CN(CC)CC)cc(OCCCCCCCCCCOC(=O)CCCCCCC)c1OCCCCCCCCCCOC(=O)CCCCCCC [Example 100] | 6.17 | 0.121 | 105.9 | PDI [2, 6]: 0.07; Size (nm) [4, 9]: 106.4 nm |
| CCCCCCCCCOC(=O)OCCCCCC(=O)OCc1cc(COC(=O)CCCCCOC(=O)OCCCCCCCCC)cc(CN(C)C)c1 [Example 106] | 6.04 | 0.083 | 149.3 | – |
